Values joined by “and” are separate entries in the source; they are usually repeats but may differ in a detail not shown here. Identical values can stand only once.
Columns and labels:
naked mouse oocytes [1] = experiment: Test of meiosis-inhibiting substances in the oocyte test (co-culture with FF-MAS in Hx-medium); format: cell-based; settings: for Oocytes [n] GV: number of oocytes with germinal vesicle; for Oocytes [n] GVB: number of oocytes with germinal vesicle breakdown; for Oocytes [n] PB: number of oocytes with polar bodies
Method: Oocytes were obtained from immature female mice (C57BI/6J × DBA/2J F1-hybrids, Bomholtgaard, Denmark) weighing 13 - 16 grams, that were kept under controlled lighting and temperature. The mice received an intra-peritoneal injection of 0.2 ml gonadotropins (Gonal F, Serono, Solna, Sweden , containing 20 IU FSH, alternatively, Puregon, Organon, Swords, Ireland containing 20 IU FSH) and 48 hours later the animals were killed by cervical dislocation. The ovaries were dissected out and the oocytes were isolated in Hx-medium (see below) under a stereo microscope by manual rupture of the follicles using a pair of 27 gauge needles. Spherical, naked oocytes (NO) displaying an intact germinal vesicle (GV) were placed in α-minimum essential medium (α-MEM without ribonucleosides, Gibco BRL, Cat.No. 22561) supplemented with 3 mM hypoxanthine (Sigma Cat. No. H-9377), 8 mg/ml Human Serum Albumin (HSA, State Serum Institute, Denmark), 0,23 mM pyrubate (Sigma, Cat. No. S-8636), 2 mM glutamine (Flow Cat. No. 16-801), 100 IU/ml penicillin and 100 µg/ml streptomycin (Flow, Cat No. 16-700). This medium was designated Hx-medium. The oocytes were rinsed three times in Hx-medium and cultured in 4-well multidishes (Nuncion, Denmark) in which each well contained 0.4 ml of Hx-medium and 30 - 40 oocytes. One control (i.e. 30 - 40 oocytes cultured in Hx-medium with no addition of test compound) was always run simultaneously with the test cultures, which were made with different concentrations of the compounds to be tested. The cultures were performed at 37 °C and 100 % humidity with 5 % CO2 in air. The culture time was 22 - 24 hours. Germinal vesicle (GV) oocytes were obtained from immature FSH treated female mice using the same methods as described in Example 1 (see above). Naked oocytes (NO) were rinsed three times in Hx-medium. […] NO were cultured in Hx-medium supplemented with 5 µM FF-MAS in co-culture with the test compounds in different concentrations in 4-well multidishes (Nunclon, Denmark) in which each well contained 0.4 ml of Hx-medium and 30 - 40 oocytes. One positive control (i.e., 30 - 40 oocytes cultured in Hx-medium containing FF-MAS with no addition of test compound) was always run simultaneously with the test cultures, which were supplemented with different concentrations of the compounds to be tested. In addition, one negative control ( 30 - 40 oocytes cultured in Hx-medium alone) was run simultaneously with the positive control. By the end of the culture period, the number of oocytes with germinal vesicle (GV) or germinal vesicle breakdown (GVB) and those with polar body (PB) was counted using a stereo microscope or an inverted microscope with differential interference contrast equipment. The percentage of oocytes with GVB + PB per total number of oocytes were calculated in the test cultures and in the control (positive and negative) culture groups. The relative inhibition of the test compound was calculated by the following formula: inhibition test compound (%) = 100% - [(GVB+PB (test compound) - GVB+PB (negative control)) x 100 / GVB+PB(positive control) - GVB+PB (negative control)] % [formula] Oocytes arrested in meiosis are characterised by an intact nucleus with a prominent nucleolus, known as germinal vesicle (GV). Upon reinitiation of meiosis the nucleolus and the nuclear envelope disappear and this is characterised by a breakdown of the GV, which than is called germinal vesicle breakdown (GVB). Some hours later the oocyte complete a reductional division and elicit the first so called polar body (PB).

naked mouse oocytes [2] = experiment: Testing of meiosis-activating substances in the oocyte test (Hx-medium); format: cell-based; settings: 10 µM in Hx-medium
Method: Oocytes were obtained from immature female mice (C57BI/6J × DBA/2J F1-hybrids, Bomholtgaard, Denmark) weighing 13 - 16 grams, that were kept under controlled lighting and temperature. The mice received an intra-peritoneal injection of 0.2 ml gonadotropins (Gonal F, Serono, Solna, Sweden , containing 20 IU FSH, alternatively, Puregon, Organon, Swords, Ireland containing 20 IU FSH) and 48 hours later the animals were killed by cervical dislocation.
The ovaries were dissected out and the oocytes were isolated in Hx-medium (see below) under a stereo microscope by manual rupture of the follicles using a pair of 27 gauge needles. Spherical, naked oocytes (NO) displaying an intact germinal vesicle (GV) were placed in α-minimum essential medium (α-MEM without ribonucleosides, Gibco BRL, Cat.No. 22561) supplemented with 3 mM hypoxanthine (Sigma Cat. No. H-9377), 8 mg/ml Human Serum Albumin (HSA, State Serum Institute, Denmark), 0,23 mM pyrubate (Sigma, Cat. No. S-8636), 2 mM glutamine (Flow Cat. No. 16-801), 100 IU/ml penicillin and 100 µg/ml streptomycin (Flow, Cat No. 16-700). This medium was designated Hx-medium. The oocytes were rinsed three times in Hx-medium and cultured in 4-well multidishes (Nuncion, Denmark) in which each well contained 0.4 ml of Hx-medium and 30 - 40 oocytes. One control (i.e. 30 - 40 oocytes cultured in Hx-medium with no addition of test compound) was always run simultaneously with the test cultures, which were made with different concentrations of the compounds to be tested. The cultures were performed at 37 °C and 100 % humidity with 5 % CO2 in air. The culture time was 22 - 24 hours.
By the end of the culture period, the number of oocytes with germinal vesicle (GV) or germinal vesicle breakdown (GVB) and those with polar body (PB) was counted using a stereo microscope or an inverted microscope with differential interference contrast equipment. The percentage of oocytes with GVB per total number of oocytes and the percentage of oocytes with PB per total number of oocytes was calculated in the test cultures and compared to the control culture.
Oocytes arrested in meiosis are characterised by an intact nucleus with a prominent nucleolus, known as germinal vesicle (GV). Upon reinitiation of meiosis the nucleolus and the nuclear envelope disappear and this is characterised by a breakdown of the GV, which than is called germinal vesicle breakdown (GVB). Some hours later the oocyte complete a reductional division and elicit the first so called polar body (PB).

[3] = 5µM FF-MAS + 10 µM test compound in Hx-medium
[4] = 5µM FF-MAS + 10 µM test compound in Hx-medium, relative inhibition of meiosis
[5] = 5µM FF-MAS alone in Hx-medium (positive control)

Row | Structure (SMILES) | Oocytes [n] GV (naked mouse oocytes [1]; [3]) [n] | Oocytes [n] GVB (naked mouse oocytes [1]; [3]) [n] | Oocytes [n] PB (naked mouse oocytes [1]; [3]) [n] | Inhibition [%] (naked mouse oocytes [1]; [4]) | Oocytes [n] GV (naked mouse oocytes [1]; [5]) | Oocytes [n] GVB (naked mouse oocytes [1]; [5]) | inhibition at 5 µM (naked mouse oocytes [1]; Mus musculus, Oocyte, 5µM FF-MAS alone in Hx-medium (positive control), relative inhibition of meiosis) [%] | Oocytes [n] GV (naked mouse oocytes [2]) [n] | Oocytes [n] GVB (naked mouse oocytes [2]) [n] | Oocytes [n] PB (naked mouse oocytes [2]) [n] | activation at 10 µM (naked mouse oocytes [2]; Mus musculus, Oocyte, read-out: Activation [%] GVB+PB) [%]
1 | CC(C)CCC[C@@H](C)[C@H]1CC[C@H]2C3=C(CC[C@]12C)[C@@]1(C)CC[C@@]2(OCCO)C[C@]1(CC3)[C@H](C)O2 [Example 5, 2-[(4aα-methyl-4a-homo-3α,5-methano-4-oxa-5α-cholest-8-en-3β-yl)oxy]ethanol] | 30 | 0 | 0 | 100 | – | – | – | – | – | – | –
2 | CC(C)=CCO[C@H]1CC[C@H]2[C@@H]3CC[C@]45C[C@H](CC[C@]4(C)[C@H]3CC[C@]12C)OC5=O [Example 12, 17β-(prenyloxy)-5β-androstane-5,3β-carbolactone] | 24 | 9 | 1 | 84 | – | – | – | – | – | – | –
3 | CC(C)=CCC[C@@H](C)[C@H]1CC=C2C3=C(CC[C@@]21C)[C@@]1(C)CC[C@H](O)C(C)(C)[C@@H]1CC3 [FF-MAS, 4,4-Dimethylcholest-B, 14,24-trien-3β-ol] | – | – | – | – | 4 n and 8 n | 16 n and 25 n | 0 | 6 | 31 | 2 | 85
